Experimental data taken from US20250304620A1, “ANTIMICROBIAL PEPTIDE AND APPLICATION THEREOF” (priority 2023, published 2025).
≈ marks a conversion by molar mass, not a printed value. Where two headings read alike, the source gives them in different places. Marks after values point to notes of the source that are not given here. Non-standard residues stand in square brackets, D forms with d. Residues, ends and D or L forms follow the SMILES beside them. PEG2000 = polyethylene glycol 2000, conjugated to the N-terminus; PEG4000 = polyethylene glycol 4000, conjugated to the C-terminus; 2Nal = N[C@@H](Cc1ccc2ccccc2c1)C(=O)O; d2Nal = N[C@H](Cc1ccc2ccccc2c1)C(=O)O

Columns and labels:
[1] = tested on: Staphylococcus aureus (NRS 384)
Method: Trypsin (250 U/mg, pH=8.0) and AMPs (LV-1 to LV-30) were mixed in a ratio of 1:10 (w/w) and added to a reaction buffer (0.2 M sodium phosphate, 1 mM CaCl2), pH 7.5), and then incubated at 37° C. for 3 h.

[2] = Serum stability assay (residual level by RP-HPLC); details: human
[3] = tested on: carbapenem-resistant Escherichia coli (CREC); type: cell-based
Text: (§1) According to the Standards of Clinical and Laboratory Standards Institute (CLSI) of the USA for antimicrobial drug susceptibility test operation standards, the micronutrient serial twofold dilution method was used further determine MICs of the antimicrobial peptides LV-1 to LV-30 against 5 clinically common drug-resistant bacterial strains. The experiment was repeated 5 times in parallel. […] The tested drug-resistant strains included Methicillin-resistant Staphylococcus aureus (MRSA), carbapenem-resistant Escherichia coli (CREC), vancomycin-resistant Enterococcus (VRE), carbapenem-resistant Pseudomonas aeruginosa (CRPA), and carbapenem-resistant Klebsiella pneumoniae (CRKP).

[4] = tested on: Methicillin-resistant Staphylococcus aureus (MRSA); type: cell-based
Text: as §1

[5] = tested on: vancomycin-resistant Enterococcus (VRE); type: cell-based
Text: as §1

[6] = tested on: carbapenem-resistant Klebsiella pneumoniae (CRKP); type: cell-based
Text: as §1

[7] = tested on: carbapenem-resistant Pseudomonas aeruginosa (CRPA); type: cell-based
Text: as §1

[8] = tested on: Candida tropicalis ATCC 750; type: cell-based
Text: (§2) According to the Standards of Clinical and Laboratory Standards Institute (CLSI) of the USA for antimicrobial drug susceptibility test operation standards, the micronutrient serial twofold dilution method was used further determine MICs of 30 AMPs (S/N: LV-1 to LV-30) 10 clinically common sensitive strains and 6 fungi in clinical practice. The experiment was repeated 5 times in parallel.

[9] = tested on: Escherichia coli ATCC 25922; type: cell-based
Text: as §2

[10] = tested on: Serratia marcescens ATCC 29021; type: cell-based
Text: as §2

[11] = tested on: Salmonella typhimurium ATCC 14028; type: cell-based
Text: as §2

[12] = tested on: Pseudomonas aeruginosa ATCC 27853; type: cell-based
Text: as §2

[13] = tested on: Staphylococcus aureus ATCC 25923; type: cell-based
Text: as §2

[14] = tested on: Candida krusei ATCC 6258; type: cell-based
Text: as §2

[15] = tested on: Candida utilis ATCC 9950; type: cell-based
Text: as §2

[16] = tested on: Bacillus subtilis ATCC 6633; type: cell-based
Text: as §2

[17] = tested on: Candida albicans ATCC MYA-2876; type: cell-based
Text: as §2

[18] = tested on: Candida glabrata ATCC 15126; type: cell-based
Text: as §2

[19] = tested on: Trichophyton ATCC MYA-4438; type: cell-based
Text: as §2

[20] = tested on: Klebsiella pneumoniae ATCC 700603; type: cell-based
Text: as §2

[21] = tested on: Enterococcus ATCC 29212; type: cell-based
Text: as §2

[22] = tested on: Corynebacterium ATCC 7715; type: cell-based
Text: as §2

[23] = tested on: Pseudomonas aeruginosa ATCC 27853; assay: Injectable formulations on mice infected with peritonitis; type: in vivo, ICR mice; details: twice a day for 3 days; for Number of mice that died on each day after infection: day 1 / Number of mice that died on each day after infection: day 2 / Number of mice that died on each day after infection: day 3 / Number of mice that died on each day after infection: day 4 / Number of mice that died on each day after infection: day 5 / Average survival times (Days): n = 10; for Average survival times (Days): observed for 14 d
Method: Both female and male ICR mice were used in the test, half of the female and male mice were taken and randomly assigned into groups, with 10 mice in each group, and kept in separate cages. The mice were divided into a blank control group, a negative control group, a positive control Levofloxacin group, and AMPs LV-1 to LV-30 groups. A bacterial suspension of Pseudomonas aeruginosa ATCC 27853 was prepared, a concentration of the suspension was adjusted 1×10^9 CFU/mL for subsequent use. Except for the blank control group, all other mice were injected with the bacterial suspension (0.2 mL, 1×10^9 CFU/mL), into abdominal cavity of the mice, to establish a model. After the model was successfully established, the mice were given drug immediately according to their body weights. Except for the blank control group and the negative control group, the mice in all other groups were administered the corresponding injectable formulations via tail vein, twice a day for 3 consecutive days. The mice were then observed for 14 d. The death of mice in each group was observed, and survival time of the mice was recorded. Results of the effect of the injectable formulations of AMPs LV-1 to LV-30 on the survival time of mice infected with Pseudomonas aeruginosa are shown in Table 10.

[24] = MIC vs Staphylococcus aureus (NRS 384) after trypsin treatment 1:10 (w/w), 37° C., 3 h

CC(=O)N[C@H](CCCNC(=N)N)C(=O)N[C@H](CCCNC(=N)N)C(=O)N[C@H](CC(C)C)C(=O)N[C@H](CC(C)C)C(=O)N[C@H](Cc1ccc2ccccc2c1)C(=O)N[C@H](CCCNC(=N)N)C(=O)N[C@H](CC(C)C)C(=O)N[C@H](CCCNC(=N)N)C(=O)N[C@H](Cc1ccc2ccccc2c1)C(=O)N[C@H](CCCNC(=N)N)C(=O)N[C@H](CCCNC(=N)N)C(N)=O [LV-1] (Ac-[dR][dR][dL][dL][d2Nal][dR][dL][dR][d2Nal][dR][dR]-NH2)
Trypsin MIC ([1]; NRS 384, 3 h): 1 µg/mL
remaining at 12 h, 0.91 mg/mL [2]: 98.5%
MIC CREC ([3]; carbapenem-resistant (CREC)): 2 µg/mL (≈ 1.16 µM)
MIC MRSA ([4]; Methicillin-resistant): 4 µg/mL (≈ 2.31 µM)
MIC VRE [5]: 4 µg/mL (≈ 2.31 µM)
MIC CRKP ([6]; carbapenem-resistant (CRKP)): 2 µg/mL (≈ 1.16 µM)
MIC CRPA ([7]; carbapenem-resistant (CRPA)): 4 µg/mL (≈ 2.31 µM)
MIC Candida tropicalis ATCC 750 [8]: 4 µg/mL (≈ 2.31 µM)
MIC Escherichia coli ATCC 25922 [9]: 1 µg/mL (≈ 0.578 µM)
MIC Serratia marcescens ATCC 29021 [10]: 2 µg/mL (≈ 1.16 µM)
MIC Salmonella typhimurium ATCC 14028 [11]: 2 µg/mL (≈ 1.16 µM)
MIC Pseudomonas aeruginosa ATCC 27853 [12]: 1 µg/mL (≈ 0.578 µM)
MIC Staphylococcus aureus ATCC 25923 [13]: 1 µg/mL (≈ 0.578 µM)
MIC Candida krusei ATCC 6258 [14]: 4 µg/mL (≈ 2.31 µM)
MIC Candida utilis ATCC 9950 [15]: 8 µg/mL (≈ 4.62 µM)
MIC Bacillus subtilis ATCC 6633 [16]: 4 µg/mL (≈ 2.31 µM)
MIC Candida albicans ATCC MYA-2876 [17]: 8 µg/mL (≈ 4.62 µM)
MIC Candida glabrata ATCC 15126 [18]: 8 µg/mL (≈ 4.62 µM)
MIC Trichophyton ATCC MYA-4438 [19]: 8 µg/mL (≈ 4.62 µM)
MIC Klebsiella pneumoniae ATCC 700603 [20]: 4 µg/mL (≈ 2.31 µM)
MIC Enterococcus ATCC 29212 [21]: 2 µg/mL (≈ 1.16 µM)
MIC Corynebacterium ATCC 7715 [22]: 2 µg/mL (≈ 1.16 µM)
Number of mice that died on each day after infection: day 1 ([23]; 0.2 mg/kg via tail vein): 1 Mouse
Number of mice that died on each day after infection: day 2 ([23]; 0.2 mg/kg via tail vein): 2 Mouse
Number of mice that died on each day after infection: day 3 ([23]; 0.2 mg/kg via tail vein): 1 Mouse
Number of mice that died on each day after infection: day 4 ([23]; 0.2 mg/kg via tail vein): 1 Mouse
Number of mice that died on each day after infection: day 5 ([23]; 0.2 mg/kg via tail vein): 1 Mouse
Average survival times (Days) ([23]; 0.2 mg/kg via tail vein): 7.3** Days
Number of mice that died on each day after infection: day 1 ([23]; 1 mg/kg via tail vein): 0 Mouse
Number of mice that died on each day after infection: day 2 ([23]; 1 mg/kg via tail vein): 1 Mouse
Number of mice that died on each day after infection: day 3 ([23]; 1 mg/kg via tail vein): 1 Mouse
Number of mice that died on each day after infection: day 4 ([23]; 1 mg/kg via tail vein): 1 Mouse
Number of mice that died on each day after infection: day 5 ([23]; 1 mg/kg via tail vein): 0 Mouse
Average survival times (Days) ([23]; 1 mg/kg via tail vein): 10.7**** Days
Number of mice that died on each day after infection: day 1 ([23]; 5 mg/kg via tail vein): 2 Mouse
Number of mice that died on each day after infection: day 2 ([23]; 5 mg/kg via tail vein): 1 Mouse
Number of mice that died on each day after infection: day 3 ([23]; 5 mg/kg via tail vein): 1 Mouse
Number of mice that died on each day after infection: day 4 ([23]; 5 mg/kg via tail vein): 0 Mouse
Number of mice that died on each day after infection: day 5 ([23]; 5 mg/kg via tail vein): 0 Mouse
Average survival times (Days) ([23]; 5 mg/kg via tail vein): 9.1** Days
survival time of mice infected with Pseudomonas aeruginosa ([23]; tail vein, observed 14 d): superior to those of the Levofloxacin group

Ac-RKLLXRLKXRK-PEG4000 [LV-30] (Ac-RKLL[2Nal]RLK[2Nal]RK-PEG4000) [polyethylene glycol 4000 conjugated to C-terminal; X=3-(2-naphthyl)-alanine]
Trypsin MIC [1, 24]: 1 µg/mL
MIC CREC ([3]; drug-resistant strain CREC): 4 µg/mL
MIC MRSA ([4]; drug-resistant strain MRSA): 8 µg/mL
MIC VRE ([5]; drug-resistant strain VRE): 4 µg/mL
MIC CRKP ([6]; drug-resistant strain CRKP): 4 µg/mL
MIC CRPA ([7]; drug-resistant strain CRPA): 8 µg/mL
MIC Candida tropicalis ATCC 750 [8]: 8 µg/mL
MIC Escherichia coli ATCC 25922 [9]: 2 µg/mL
MIC Serratia marcescens ATCC 29021 [10]: 8 µg/mL
MIC Salmonella typhimurium ATCC 14028 [11]: 2 µg/mL
MIC Pseudomonas aeruginosa ATCC 27853 [12]: 2 µg/mL
MIC Staphylococcus aureus ATCC 25923 [13]: 2 µg/mL
MIC Candida krusei ATCC 6258 [14]: 16 µg/mL
MIC Candida utilis ATCC 9950 [15]: 8 µg/mL
MIC Bacillus subtilis ATCC 6633 [16]: 2 µg/mL
MIC Candida albicans ATCC MYA-2876 [17]: 8 µg/mL
MIC Candida glabrata ATCC 15126 [18]: 16 µg/mL
MIC Trichophyton ATCC MYA-4438 [19]: 8 µg/mL
MIC Klebsiella pneumoniae ATCC 700603 [20]: 8 µg/mL
MIC Enterococcus ATCC 29212 [21]: 4 µg/mL
MIC Corynebacterium ATCC 7715 [22]: 8 µg/mL
Number of mice that died on each day after infection: day 1 ([23]; 1 mg/kg via tail vein): 1 Mouse
Number of mice that died on each day after infection: day 2 ([23]; 1 mg/kg via tail vein): 1 Mouse
Number of mice that died on each day after infection: day 3 ([23]; 1 mg/kg via tail vein): 0 Mouse
Number of mice that died on each day after infection: day 4 ([23]; 1 mg/kg via tail vein): 1 Mouse
Number of mice that died on each day after infection: day 5 ([23]; 1 mg/kg via tail vein): 1 Mouse
Average survival times (Days) ([23]; 1 mg/kg via tail vein): 9.6*** Days

PEG2000-RKLLXRLKXRK-NH2 [LV-29] (PEG2000-RKLL[2Nal]RLK[2Nal]RK-NH2) [polyethylene glycol 2000 conjugated to N-terminal; X=3-(2-naphthyl)-alanine]
Trypsin MIC [1, 24]: 1 µg/mL
MIC CREC ([3]; drug-resistant strain CREC): 8 µg/mL
MIC MRSA ([4]; drug-resistant strain MRSA): 4 µg/mL
MIC VRE ([5]; drug-resistant strain VRE): 4 µg/mL
MIC CRKP ([6]; drug-resistant strain CRKP): 8 µg/mL
MIC CRPA ([7]; drug-resistant strain CRPA): 4 µg/mL
MIC Candida tropicalis ATCC 750 [8]: 4 µg/mL
MIC Escherichia coli ATCC 25922 [9]: 1 µg/mL
MIC Serratia marcescens ATCC 29021 [10]: 4 µg/mL
MIC Salmonella typhimurium ATCC 14028 [11]: 4 µg/mL
MIC Pseudomonas aeruginosa ATCC 27853 [12]: 4 µg/mL
MIC Staphylococcus aureus ATCC 25923 [13]: 2 µg/mL
MIC Candida krusei ATCC 6258 [14]: 8 µg/mL
MIC Candida utilis ATCC 9950 [15]: 4 µg/mL
MIC Bacillus subtilis ATCC 6633 [16]: 4 µg/mL
MIC Candida albicans ATCC MYA-2876 [17]: 8 µg/mL
MIC Candida glabrata ATCC 15126 [18]: 8 µg/mL
MIC Trichophyton ATCC MYA-4438 [19]: 16 µg/mL
MIC Klebsiella pneumoniae ATCC 700603 [20]: 4 µg/mL
MIC Enterococcus ATCC 29212 [21]: 8 µg/mL
MIC Corynebacterium ATCC 7715 [22]: 16 µg/mL
Number of mice that died on each day after infection: day 1 ([23]; 1 mg/kg via tail vein): 1 Mouse
Number of mice that died on each day after infection: day 2 ([23]; 1 mg/kg via tail vein): 0 Mouse
Number of mice that died on each day after infection: day 3 ([23]; 1 mg/kg via tail vein): 0 Mouse
Number of mice that died on each day after infection: day 4 ([23]; 1 mg/kg via tail vein): 3 Mouse
Number of mice that died on each day after infection: day 5 ([23]; 1 mg/kg via tail vein): 1 Mouse
Average survival times (Days) ([23]; 1 mg/kg via tail vein): 8.8** Days
